From EP4563149A1, “LURBINECTEDIN, ECUBECTEDIN AND A RELATED COMPOUND FOR USE IN THE TREATMENT OF SKIN CANCERS” (Pharma Mar, S.A., priority 2023, dated 2025)
Like-named read-outs stand apart in the source and are kept apart here.

How the values were obtained:
[1] = tested on: 501mel, 501mel^VemuR and SKMEL28-derived xenografts; conditions: 24h after single IV dose of 1.2 mg/kg
Source text: (§1) To investigate the effects of the aforementioned tested drugs in living organisms, it was decided to examine the impact of PM14 and Compound IA on melanoma cell-derived xenograft (CDXs) mouse models. Human 501mel, 501mel^VemuR or SKMEL28 melanoma cells were subcutaneously implanted into the right flank of NSG mice.

[2] = tested on: MM029; assay: Cell viability assay (PrestoBlue), 72h; conditions: Homo sapiens
Method: (§7) Cells were grown at 37°C in 5% CO2 (10% for Hermes 3A) and were regularly checked for mycoplasma contamination. […] Melanoma IGR cell lines (IGR37 and IGR39) were grown in RPMI w/o HEPES (Gibco, Invitrogen) supplemented with 15% FCS and gentamycin.
(§8) To determine the IC50 (half maximal inhibitory concentration) of these cells to various inhibitors, cell viability assays were performed.
(§9) After 72h of treatment with different concentrations of the compounds, cells were treated with PrestoBlue reagent according to the manufacturer's instructions. The absorbance per well was measured with a Cellinsight CX5 microplate reader. Data were analyzed using Prism9 statistical software.

[3] = tested on: IGR37; assay: Cell viability assay (PrestoBlue), 72h, last line of Table 2; conditions: Homo sapiens, IGR-37, 72 h
Method: as §7, §8, §9

[4] = tested on: WM-266-4 melanoma xenografts; conditions: 1.2 mg/kg intravenous
Method: (§2) Female athymic nu/nu mice (Harlan Laboratories Models, S.L. Barcelona, Spain or Envigo, Spain) were utilized for all experiments. Animal were housed in individually ventilated cages Sealsafe® Plus, Techmplast S.P.A.), up to ten per cage on a 12-hour light-dark cycle at 21-23 °C and 40-60 % humidity. Mice were allowed free access to irradiated standard rodent diet (Tecklad 2914C) and sterilized water. Animals were acclimated for at least 5 days prior to tumor implantation with a tumor cell suspension.
(§3) The cell line used are: • 501mel • IGR-37 • SK-Mel-28 • WM-266-4 • LOX-IMVI • 501mel^Vemur
(§4) In xenograft studies with cell lines: • Tumour volume was calculated using the equation […], where a: length (longest diameter) and b: width (shortest diameter) were measured in mm by using digital caliper (Fowler Sylvac, S235PAT). Tumour dimensions and body weights were recorded 2-3 times per week starting from the first day of treatment. • When tumors reached ca. 150-250 mm^3, tumour bearing animals (N = 8-10/group) were randomly allocated into the treatment groups, based on body weight and tumour measurements by using NewLab Oncology Software (version 2.25.06.00). • Comparison between median tumour volume of treated and placebo groups was used for evaluation of the antitumoural efficacy. • Animals were euthanized when their tumours reached ca. 1,500 mm^3 and/or severe necrosis was seen.
(§5) Treatments producing >20 % lethality and/or 20% net body weight loss were considered toxic.
(§6) In these experiments, PM14 and Compound IA, as well as placebo, were intravenously administered once per week for 3 consecutive weeks, on days 0, 7 and 14, whenever it was possible.
Table 7. Tumour volume evaluation in WM-266-4 melanoma xenografts with PM14 and Compound IA and placebo.

[5] = tested on: 501mel, 501mel^VemuR or SKMEL28 melanoma cells; conditions: weekly IV 1.2mg/kg
Method: as §1
Tumor volumes were monitored following weekly IV treatments of PM14 or Comp IA at a concentration of 1.2mg/kg. Treatments commenced (Day 0) when the tumors reached 150 mm^3 in female NSG mice aged 4 to 6 weeks (N=8/group).

[6] = tested on: 501mel^VemuR; assay: Cell viability assay (PrestoBlue), 72h; conditions: Homo sapiens
Method: Cells were grown at 37°C in 5% CO2 (10% for Hermes 3A) and were regularly checked for mycoplasma contamination. MM patient-derived short-term melanoma cultures (MM011, MM074, MM117, MM029, MM047, MM099) were grown in HAM-F10 (Gibco, Invitrogen) supplemented with 10% Fetal Calf Serum (FCS), 25 mM HEPES, 5.2 mM GLUTAMAX and penicillin-streptomycin. Melanoma cell lines 501mel and SKmel28 were grown in RPMI w/o HEPES (Gibco, Invitrogen) supplemented with 10% FCS and gentamycin. Vemurafenib-resistant cells (501melVemuR and MM074VemuR) were additionally supplemented with 1.5 µM of vemurafenib. Melanoma IGR cell lines (IGR37 and IGR39) were grown in RPMI w/o HEPES (Gibco, Invitrogen) supplemented with 15% FCS and gentamycin.
as §8, §9

[7] = tested on: 501 mel^Vemur cell line; conditions: 1.2 mg/kg intravenous
Method: as §2, §3, §4, §5, §6

[8] = tested on: SKMEL-28; assay: Cell viability assay (PrestoBlue), 72h; conditions: Homo sapiens, SK-MEL-28, 72 h
Method: (§10) Cells were grown at 37°C in 5% CO2 (10% for Hermes 3A) and were regularly checked for mycoplasma contamination. […] Melanoma cell lines 501mel and SKmel28 were grown in RPMI w/o HEPES (Gibco, Invitrogen) supplemented with 10% FCS and gentamycin. Vemurafenib-resistant cells (501melVemuR and MM074VemuR) were additionally supplemented with 1.5 µM of vemurafenib. Melanoma IGR cell lines (IGR37 and IGR39) were grown in RPMI w/o HEPES (Gibco, Invitrogen) supplemented with 15% FCS and gentamycin.
as §8, §9

[9] = tested on: xenografts with various melanoma cell lines; conditions: different xenografts, 1.2 mg/kg intravenous once per week for 3 weeks
Method: as §2, §3
as §4, with “seen. […]” for “seen.”

[10] = tested on: IGR37; assay: Cell viability assay (PrestoBlue), 72h; conditions: Homo sapiens, IGR-37, 72 h
Method: as §10, §8, §9

[11] = tested on: all melanoma cells; assay: Cell viability assay (PrestoBlue), summary over all melanoma cells; type: cell-based; conditions: Homo sapiens, read-out: IC50 values
[12] = tested on: Hermes3A; assay: Cell viability assay (PrestoBlue), 72h
Method: as §7, §8, §9

[13] = tested on: LOX-IMVI melanoma xenografts; conditions: 1.2 mg/kg intravenous
Method: as §2, §3, §4, §5, §6
Tumour volume evaluation in LOX-IMVI melanoma xenografts with PM14 and Compound IA and placebo.

[14] = tested on: RPB1 (RNA pol II elongation subunit); assay: Immunoblotting of RPB1 in 501mel; type: cell-based, human; conditions: 24h at 5×IC50
Method: Cells were washed once with cold PBS, rinsed with a cell scraper, pelleted and resuspended in LSDB 0.5M buffer (0.5M KCI, 50mM Tris HCl pH 7.9, 20% Glycerol, 1% NP40, 1mM DTT, PIC). Afterwards cells were fully disrupted with 3 cycles of heat shock in liquid nitrogen and 37°C water bath and centrifugated 15min at 14,000rpm to pellet cell debris. Ten micrograms of extract were loaded on SDS-PAGE before transfer to nitro-cellulose membranes and immunoblotting.

COc1c(C)cc2c(c1O)[C@@H]1[C@@H]3[C@@H]4SC[C@]5(N[C@H](CO)Cc6c5oc5ccccc65)C(=O)OC[C@@H](c5c6c(c(C)c(OC(C)=O)c54)OCO6)N3[C@@H](O)[C@H](C2)N1C [Compound IA]
fraction of apoptotic cells (cleaved caspase-3) [1]: significant increase
IC50 [2]: 4.73 nM
IC50 [3]: 0.84 nM
Median Tumour Volume ([4]; days 0, 7 and 14, day 0): 169.5 mm^3
Median Tumour Volume ([4]; days 0, 7 and 14, day 3): 109.8 mm^3
Median Tumour Volume ([4]; days 0, 7 and 14, day 5): 100 mm^3
Median Tumour Volume ([4]; days 0, 7 and 14, day 7): 104.4 mm^3
Median Tumour Volume ([4]; days 0, 7 and 14, day 10): 97.8 mm^3
Median Tumour Volume ([4]; days 0, 7 and 14, day 12): 89.2 mm^3
Median Tumour Volume ([4]; days 0, 7 and 14, day 14): 94.9 mm^3
Median Tumour Volume ([4]; days 0, 7 and 14, day 17): 68.8 mm^3
Median Tumour Volume ([4]; days 0, 7 and 14, day 19): 75.7 mm^3
Median Tumour Volume ([4]; days 0, 7 and 14, day 21): 95.2 mm^3
Median Tumour Volume ([4]; days 0, 7 and 14, day 24): 75.7 mm^3
Median Tumour Volume ([4]; days 0, 7 and 14, day 26): 96.7 mm^3
Median Tumour Volume ([4]; days 0, 7 and 14, day 28): 99.4 mm^3
Median Tumour Volume ([4]; days 0, 7 and 14, day 34): 134.3 mm^3
Median Tumour Volume ([4]; days 0, 7 and 14, day 41): 275.2 mm^3
Median Tumour Volume ([4]; days 0, 7 and 14, day 45): 312.1 mm^3
Median Tumour Volume ([4]; days 0, 7 and 14, day 48): 461.7 mm^3
Median Tumour Volume ([4]; days 0, 7 and 14, day 55): 749.7 mm^3
Median Tumour Volume ([4]; days 0, 7 and 14, day 62): 985.3 mm^3
Median Tumour Volume ([4]; days 0, 7 and 14, day 69): 1,145.3 mm^3
antitumor activity (tumor volumes) versus placebo-treated group ([5]; N=8/group): statistically significant difference
overall survival ([5]; three CDX models): significant increase
IC50 [6]: 2.13 nM
Median Tumour Volume ([7]; days 0, 7 and 14, day 0): 160.3 mm^3
Median Tumour Volume ([7]; days 0, 7 and 14, day 2): 249 mm^3
Median Tumour Volume ([7]; days 0, 7 and 14, day 4): 306.8 mm^3
Median Tumour Volume ([7]; days 0, 7 and 14, day 7): 378.8 mm^3
Median Tumour Volume ([7]; days 0, 7 and 14, day 9): 417.2 mm^3
Median Tumour Volume ([7]; days 0, 7 and 14, day 11): 453.7 mm^3
Median Tumour Volume ([7]; days 0, 7 and 14, day 14): 490.8 mm^3
Median Tumour Volume ([7]; days 0, 7 and 14, day 16): 517.4 mm^3
Median Tumour Volume ([7]; days 0, 7 and 14, day 18): 572.1 mm^3
Median Tumour Volume ([7]; days 0, 7 and 14, day 21): 666.9 mm^3
Median Tumour Volume ([7]; days 0, 7 and 14, day 23): 703.5 mm^3
Median Tumour Volume ([7]; days 0, 7 and 14, day 25): 739.3 mm^3
Median Tumour Volume ([7]; days 0, 7 and 14, day 28): 861.2 mm^3
Median Tumour Volume ([7]; days 0, 7 and 14, day 30): 986.4 mm^3
Median Tumour Volume ([7]; days 0, 7 and 14, day 35): 997.4 mm^3
Median Tumour Volume ([7]; days 0, 7 and 14, day 42): 900.1 mm^3
Median Tumour Volume ([7]; days 0, 7 and 14, day 44): 982.3 mm^3
Median Tumour Volume ([7]; days 0, 7 and 14, day 46): 1080 mm^3
Median Tumour Volume ([7]; days 0, 7 and 14, day 49): 1,169.4 mm^3
Median Tumour Volume ([7]; days 0, 7 and 14, day 53): 1,262.1 mm^3
Median Tumour Volume ([7]; days 0, 7 and 14, day 56): 1,521.8 mm^3
IC50 [8]: 1.74 nM
tumor volume compared to the placebo [9]: reduction of the volume tumor
IC50 [10]: 1.48 nM
IC50 [11]: 0.3 to 4.73 nM
sensitivity of non-cancerous Hermes3A immortalized melanocytes compared with the melanoma cells ([12]; Hermes3A versus melanoma cells): less sensitive
IC50 ([12]; Homo sapiens, Melanocyte, 72 h): 4.93 nM
Median Tumour Volume ([13]; days 0, 7 and 14, day 0): 186.2 mm^3
Median Tumour Volume ([13]; days 0, 7 and 14, day 2): 196.3 mm^3
Median Tumour Volume ([13]; days 0, 7 and 14, day 4): 138.7 mm^3
Median Tumour Volume ([13]; days 0, 7 and 14, day 7): 106.8 mm^3
Median Tumour Volume ([13]; days 0, 7 and 14, day 9): 87.8 mm^3
Median Tumour Volume ([13]; days 0, 7 and 14, day 11): 56 mm^3
Median Tumour Volume ([13]; days 0, 7 and 14, day 14): 53.5 mm^3
Median Tumour Volume ([13]; days 0, 7 and 14, day 16): 54.7 mm^3
Median Tumour Volume ([13]; days 0, 7 and 14, day 18): 51.4 mm^3
Median Tumour Volume ([13]; days 0, 7 and 14, day 21): 71.2 mm^3
Median Tumour Volume ([13]; days 0, 7 and 14, day 23): 99.9 mm^3
Median Tumour Volume ([13]; days 0, 7 and 14, day 25): 132 mm^3
Median Tumour Volume ([13]; days 0, 7 and 14, day 28): 597.7 mm^3
Median Tumour Volume ([13]; days 0, 7 and 14, day 30): 1,158.4 mm^3
Median Tumour Volume ([13]; days 0, 7 and 14, day 32): 1,098.3 mm^3
Median Tumour Volume ([13]; days 0, 7 and 14, day 35): 968.8 mm^3
Median Tumour Volume ([13]; days 0, 7 and 14, day 37): 1,375.6 mm^3
RPB1 (RNA pol II elongation subunit) degradation [14]: pronounced
